Experimental data published in publication PMC5756575, “In Vitro Biotransformation, Safety, and Chemopreventive Action of Novel 8-Methoxy-Purine-2,6-Dione Derivatives” (Applied Biochemistry and Biotechnology, 2017).

Key:
[1] = Microsomal stability assay; type: in vitro ADME, rat; settings: pH 7.4, rat liver microsomes, 20 μM, 0.4 mg/mL protein
Protocol: (§1) Compounds 1 and 3 were studied in a biotransformation assay using rat liver microsomes following procedures described previously. The reagents used in this assay were levallorphan (internal standard) and NADPH-regenerating system, which contained phosphate buffer (pH 7.4), NADP^+, glucose-6-phosphate, and glucose-6-phosphate dehydrogenase. The final protein concentration in the assay was 0.4 mg/mL. Compounds 1 and 3 were tested at a final concentration of 20 μM.
(§2) The amount of a parental compound remaining in a solution after biotransformation was monitored using LC-MS/MS as described previously in “Cunninghamella Biotransformation Assay.” Graphs representing ln of percentage of parent compound remaining versus incubation time were drawn to calculate in vitro half-time (t1/2) from the slope of linear regression. To obtain intrinsic clearance (Clint) of a tested compound in rat liver microsomal assay, t1/2 previously calculated was substituted at the equation Clint = [(Vmic/Pmic) × 0.693/t1/2], being Vmic and Pmic the volume of incubation in microliters and the amount of incubated protein in milligrams, respectively.
(§3) Agilent 1100 HPLC system (Agilent Technologies, Waldbronn, Germany) equipped with a Xbridge™ C18 analytical column (2.1 × 30 mm, […]; Waters, Dublin, Ireland) was used in the chromatographic separation of LC-MS/MS analysis. An elution gradient of acetonitrile and water, with 0.1% of formic acid, was used as a mobile phase. MS spectra were taken at Applied Biosystems MDS Sciex API 200 triple quadrupole mass analyzer (Concord, Ontario, Canada) with an electrospray ionization (ESI) interface between HPLC and MS.

rat liver microsomes = assay: Microsomal stability assay; type: in vitro ADME; settings: 97.88 versus 302.00 μL/min/mg
Protocol: as §1, §2, §3

[2] = DPPH radical scavenging assay; type: biochemical; settings: DPPH 250 μM, compound at 250 μM, 30 min, 517 nm
Protocol: The capacity of selected 8-methoxy-purine-2,6-dione derivatives to scavenge stable free radical DPPH was assessed. A blank and a triplicate of 10 different concentrations of each compound or of each positive control (gallic and ascorbic acids) were evaluated in the experiment. Aforesaid concentrations of compounds were obtained by dilution from a 1000 μM stock solution in methanol. One hundred microliters of DPPH stock solution were added to each well; later, 100 μL of the corresponding compound dilution were added. Consequently, the final concentration of DPPH radical was 250 μM, whereas the final concentrations of the tested compounds or positive controls were 500, 375, 250, 125, 62.5, 50, 37.5, 25, 12.5, and 6.25 μM. Afterwards, the 96-plate was wrapped with aluminum and stored in the dark 30 min prior to the spectrophotometric measurement at a 517-nm wavelength. The obtained absorbances were used to calculate the percentage of radical scavenged by the action of a compound or of a positive control at each concentration using a formula 100 × (A 0 − A m)/A 0. In this equation A m is the average absorbance of the three triplicates measured at the corresponding concentration and A 0 is the average absorbance of DPPH radical in the absence of the tested substance. Knowing inhibition data at the different concentrations, IC50 was calculated when applicable.

mice = test system: mice; set-up: method as in PMID 25443727, PMID 25560569; settings: writhing syndrome test in mice; cited from earlier work

SMILES | half-life at 20 μM ([1]; read-out: in vitro half-time (t1/2)) [min] | microsomal CLint at 20 μM ([1]; read-out: intrinsic clearance (Clint)) [µL/min/mg] | Clint, fold lower than imipramine (rat liver microsomes) [fold] | maximum radical scavenging percentage observed [2] [%] | fold higher activity than acetylsalicylic acid (mice) [fold]
COc1nc2c(c(=O)n(C)c(=O)n2C)n1CCCC(=O)NCc1ccccc1 [Compound 3, N-benzyl-4-(8-methoxy-1,3-dimethyl-2,6-dioxo-purin-7-yl)butanamide] | 17.7 | 97.9 | 3.09 | 6.56 | –
COc1nc2c(c(=O)n(C)c(=O)n2C)n1CCCC(=O)N1CCN(c2ccccc2)CC1 [Compound 4, 8-methoxy-1,3-dimethyl-7-[4-oxo-4-(4-phenylpiperazin-1-yl)butyl]purine-2,6-dione] | – | – | – | – | 23
